US4684637A, “Method of decreasing rate of heme metabolism” (The Rockefeller University, priority 1985, dated 1987)
Where “and” joins values, the source holds several entries; their conditions need not be identical. Equal entries are not always repeated.

Assays:
Type in all cases: in vivo, rat
[1] = test system: heme oxygenase; assay: heme oxygenase activity (bilirubin production) in liver and kidney microsomes of adult rats treated with Sn-protoporphyrin; settings: 50 μmol/Kg s.c.
Experimental: Studies were carried out with adult rats treated with Sn-protoporphyrin to determine the effect on heme oxygenase activity and bilirubin production. Three rats weighing about 230 grams each were injected subcutaneously with 50 μmol/Kg of Sn-protoporphyrin in isotonic saline at pH 8. Three controls were similiary treated with isotonic saline. The rats were sacrificed sixteen hours after treatment. The microsomal protein of the separate livers and of the three combined kidneys was estimated and heme oxygenase activity determined according to the method of Maines and Kappas. This procedure measures the heme oxygenase activity by determining the amount of bilirubin produced. The concentration unit for bilirubin is nanamoles bilirubin formed per milligram protein per hour.

[2] = test system: heme oxygenase; assay: hepatic heme oxygenase activity in neonatal rats treated with Sn-protoporphyrin
Experimental: (§1) To determine the efficacy of Sn-protoporphyrin for controlling the rate of heme metabolism, neonatal rats were injected subcutaneously at birth, and at 12, 24, 48 and 72 hours postnatally with 0.1 ml solutions of Sn-protoporphyrin. To prepare the solutions for parenteral injection, the material was taken up in a small volume of 0.2N sodium hydroxide, adjusted to pH 7.4 with one normal hydrochloric acid and made up to final volume with 0.9% sodium chloride. The compositions as prepared and used contained sufficient Sn-protoporphyrin to provide about 100 μmol/Kg body weight in each 0.1 ml injection. Control neonates received an equivalent volume of saline at each time point. Groups of neonates (6-30 animals per group) were sacrificed at selected time intervals.
(§2) The treated animals and the controls were assayed for heme oxygenase activity and bilirubin concentration. Since heme oxygenase is an essential component in the catabolism of heme, an increase in heme oxygenase activity is indicative of an increase in the rate of heme catabolism. Heme oxygenase was assyed as described by Maines and Kappas in J. Biol. Chem., 253, 2321-2326 (1978). Total bilirubin in serum was estimated by the method of Roth, Clin. Chem. Acta., 17, 487-492 (1967).

[3] = test system: serum bilirubin; assay: total serum bilirubin in neonatal rats treated with Sn-protoporphyrin; settings: about 100 μmol/Kg s.c. per injection
Experimental: as §1, §2

[4] = test system: heme oxygenase; assay: heme oxygenase activity in liver, kidney and spleen of neonatal rats treated with Cr-protoporphyrin
Experimental: as §2
(§3) Similar studies were conducted with neonatal rats treated subcutaneously with 2 and 10 micromoles per kilogram of Cr-protoporphyrin soon after birth. Various organs were analyzed for heme oxygenase activity and bilirubin concentration. The results were compared with controls each of which were treated subcutaneously with 0.1 ml of saline.
The results for heme oxygenase activity in liver, kidney and spleen in nanamoles heme oxygenase per milligram microsomal protein per hour are shown below.

[5] = test system: serum bilirubin; assay: serum bilirubin in neonatal rats treated with Cr-protoporphyrin
Experimental: as §2, §3

[6] = neonatal rats, about 100 μmol/Kg s.c. per injection

Q: What does the source list for C=Cc1c2[n-]c(c1C)/C=c1\[n-]/c(c(C)c1C=C)=C\c1[n-]c(c(CCC(=O)O)c1C)C=c1[n-]/c(c(C)c1CCC(=O)O)=C\2.[Sn+4] [Sn-protoporphyrin, tin protoporphyrin IX]?
A: effect on bilirubin production and heme oxygenase activity [1]: extremely effective; heme oxygenase activity (bilirubin produced), LIVER ([1]; sacrificed sixteen hours after treatment, separate livers (Experiment 1-3 = individual rats)): 0.95 nanamoles bilirubin formed per and 1.53 nanamoles bilirubin formed per; heme oxygenase activity (bilirubin produced), KIDNEY (COMBINED) ([1]; sacrificed sixteen hours after treatment, three combined kidneys): 0.055 nanamoles bilirubin formed per; activity compared with Cr-protoporphyrin ([2]; decreasing rate of heme metabolism): more active; effect on normal postnatal increase in hepatic heme oxygenase activity ([2]; neonatal rats, about 100 μmol/Kg s.c. at birth and 12, 24, 48, 72 hours, six week study): completely prevented the normal marked increase in hepatic heme oxygenase activity after birth; day at which hepatic heme oxygenase activity attained normal control levels [2, 6]: ~42 days; time hepatic heme oxygenase activity remained well below control levels [2, 6]: about three; hepatic heme oxygenase activity relative to controls ([2]; neonatal rats, about 100 μmol/Kg s.c. per injection, 1 day): less than half the levels of the controls; day until which low bilirubin concentration continued [3]: fourth; effect on serum bilirubin levels ([3]; 42 day study): immediate and significant lowering of serum bilirubin levels

Q: How did the “effect on heme oxygenase” value ([4]; 2 and 10 μmol/Kg s.c., liver, kidney, spleen) turn out when C=CC1=C(C)c2cc3[n-]c(cc4[n-]c(cc5nc(cc1n2)C(C)=C5C=C)c(C)c4CCC(=O)[O-])c(CCC(=O)[O-])c3C.[Cr+3].[H+] [Cr-protoporphyrin] was run?
A: immediate decrease in heme oxygenase

Q: What about the heme oxygenase activity ([4]; kidney, 2 μmol/Kg s.c. soon after birth, day 2) of the same compound?
A: 0.36 nanamoles heme oxygenase per m

Q: What about the heme oxygenase activity ([4]; kidney, 2 μmol/Kg s.c. soon after birth, day 3) of the same compound?
A: 0.72 nanamoles heme oxygenase per m

Q: What about the heme oxygenase activity ([4]; kidney, 2 μmol/Kg s.c. soon after birth, day 5) of the same compound?
A: 0.94 nanamoles heme oxygenase per m

Q: And the heme oxygenase activity ([4]; kidney, 2 μmol/Kg s.c. soon after birth, day 7)?
A: 1.17 nanamoles heme oxygenase per m

Q: And the heme oxygenase activity ([4]; kidney, 2 μmol/Kg s.c. soon after birth, day 10)?
A: 1.67 nanamoles heme oxygenase per m

Q: What about the heme oxygenase activity ([4]; kidney, 2 μmol/Kg s.c. soon after birth, day 14) of the same compound?
A: 0.74 nanamoles heme oxygenase per m

Q: And the heme oxygenase activity ([4]; kidney, 2 μmol/Kg s.c. soon after birth, day 21)?
A: 0.61 nanamoles heme oxygenase per m

Q: And the heme oxygenase activity ([4]; kidney, 2 μmol/Kg s.c. soon after birth, day 35)?
A: 0.58 nanamoles heme oxygenase per m

Q: What about the heme oxygenase activity ([4]; kidney, 10 μmol/Kg s.c. soon after birth, day 2) of the same compound?
A: 0 nanamoles heme oxygenase per m

Q: What about the heme oxygenase activity ([4]; kidney, 10 μmol/Kg s.c. soon after birth, day 3) of the same compound?
A: 0.42 nanamoles heme oxygenase per m

Q: What about the heme oxygenase activity ([4]; kidney, 10 μmol/Kg s.c. soon after birth, day 5) of the same compound?
A: 0.59 nanamoles heme oxygenase per m

Q: What about the heme oxygenase activity ([4]; kidney, 10 μmol/Kg s.c. soon after birth, day 7) of the same compound?
A: 0.48 nanamoles heme oxygenase per m

Q: And the heme oxygenase activity ([4]; kidney, 10 μmol/Kg s.c. soon after birth, day 10)?
A: 0.34 nanamoles heme oxygenase per m

Q: And the heme oxygenase activity ([4]; kidney, 10 μmol/Kg s.c. soon after birth, day 14)?
A: 0.41 nanamoles heme oxygenase per m

Q: And the heme oxygenase activity ([4]; kidney, 10 μmol/Kg s.c. soon after birth, day 21)?
A: 0.16 nanamoles heme oxygenase per m

Q: And the heme oxygenase activity ([4]; kidney, 10 μmol/Kg s.c. soon after birth, day 35)?
A: 0.45 nanamoles heme oxygenase per m

Q: What about the heme oxygenase activity ([4]; liver, 2 μmol/Kg s.c. soon after birth, day 2) of the same compound?
A: 5.81 nanamoles heme oxygenase per m

Q: And the heme oxygenase activity ([4]; liver, 2 μmol/Kg s.c. soon after birth, day 3)?
A: 5.60 nanamoles heme oxygenase per m

Q: And the heme oxygenase activity ([4]; liver, 2 μmol/Kg s.c. soon after birth, day 5)?
A: 5.36 nanamoles heme oxygenase per m

Q: What about the heme oxygenase activity ([4]; liver, 2 μmol/Kg s.c. soon after birth, day 7) of the same compound?
A: 4.42 nanamoles heme oxygenase per m

Q: And the heme oxygenase activity ([4]; liver, 2 μmol/Kg s.c. soon after birth, day 10)?
A: 3.62 nanamoles heme oxygenase per m

Q: And the heme oxygenase activity ([4]; liver, 2 μmol/Kg s.c. soon after birth, day 14)?
A: 2.24 nanamoles heme oxygenase per m

Q: And the heme oxygenase activity ([4]; liver, 2 μmol/Kg s.c. soon after birth, day 21)?
A: 1.94 nanamoles heme oxygenase per m

Q: And the heme oxygenase activity ([4]; liver, 2 μmol/Kg s.c. soon after birth, day 35)?
A: 2.38 nanamoles heme oxygenase per m

Q: And the heme oxygenase activity ([4]; liver, 10 μmol/Kg s.c. soon after birth, day 2)?
A: 1.67 nanamoles heme oxygenase per m

Q: What about the heme oxygenase activity ([4]; liver, 10 μmol/Kg s.c. soon after birth, day 3) of the same compound?
A: 1.43 nanamoles heme oxygenase per m

Q: And the heme oxygenase activity ([4]; liver, 10 μmol/Kg s.c. soon after birth, day 5)?
A: 1.22 nanamoles heme oxygenase per m

Q: What about the heme oxygenase activity ([4]; liver, 10 μmol/Kg s.c. soon after birth, day 7) of the same compound?
A: 0.85 nanamoles heme oxygenase per m

Q: What about the heme oxygenase activity ([4]; liver, 10 μmol/Kg s.c. soon after birth, day 10) of the same compound?
A: 0.85 nanamoles heme oxygenase per m

Q: What about the heme oxygenase activity ([4]; liver, 10 μmol/Kg s.c. soon after birth, day 14) of the same compound?
A: 0.78 nanamoles heme oxygenase per m

Q: And the heme oxygenase activity ([4]; liver, 10 μmol/Kg s.c. soon after birth, day 21)?
A: 0.56 nanamoles heme oxygenase per m

Q: And the heme oxygenase activity ([4]; liver, 10 μmol/Kg s.c. soon after birth, day 35)?
A: 1.23 nanamoles heme oxygenase per m

Q: What about the heme oxygenase activity ([4]; spleen, 2 μmol/Kg s.c. soon after birth, day 2) of the same compound?
A: 7.33 nanamoles heme oxygenase per m

Q: What about the heme oxygenase activity ([4]; spleen, 2 μmol/Kg s.c. soon after birth, day 3) of the same compound?
A: 11.13 nanamoles heme oxygenase per m

Q: What about the heme oxygenase activity ([4]; spleen, 2 μmol/Kg s.c. soon after birth, day 5) of the same compound?
A: 15.13 nanamoles heme oxygenase per m

Q: What about the heme oxygenase activity ([4]; spleen, 2 μmol/Kg s.c. soon after birth, day 7) of the same compound?
A: 11.18 nanamoles heme oxygenase per m

Q: And the heme oxygenase activity ([4]; spleen, 2 μmol/Kg s.c. soon after birth, day 10)?
A: 13.87 nanamoles heme oxygenase per m

Q: And the heme oxygenase activity ([4]; spleen, 2 μmol/Kg s.c. soon after birth, day 14)?
A: 16.62 nanamoles heme oxygenase per m

Q: And the heme oxygenase activity ([4]; spleen, 2 μmol/Kg s.c. soon after birth, day 21)?
A: 10.28 nanamoles heme oxygenase per m

Q: What about the heme oxygenase activity ([4]; spleen, 2 μmol/Kg s.c. soon after birth, day 35) of the same compound?
A: 15.55 nanamoles heme oxygenase per m

Q: What about the heme oxygenase activity ([4]; spleen, 10 μmol/Kg s.c. soon after birth, day 2) of the same compound?
A: 3.97 nanamoles heme oxygenase per m

Q: And the heme oxygenase activity ([4]; spleen, 10 μmol/Kg s.c. soon after birth, day 3)?
A: 4.62 nanamoles heme oxygenase per m

Q: And the heme oxygenase activity ([4]; spleen, 10 μmol/Kg s.c. soon after birth, day 5)?
A: 2.76 nanamoles heme oxygenase per m

Q: What about the heme oxygenase activity ([4]; spleen, 10 μmol/Kg s.c. soon after birth, day 7) of the same compound?
A: 6.19 nanamoles heme oxygenase per m

Q: And the heme oxygenase activity ([4]; spleen, 10 μmol/Kg s.c. soon after birth, day 10)?
A: 9.53 nanamoles heme oxygenase per m

Q: And the heme oxygenase activity ([4]; spleen, 10 μmol/Kg s.c. soon after birth, day 14)?
A: 10.34 nanamoles heme oxygenase per m

Q: And the heme oxygenase activity ([4]; spleen, 10 μmol/Kg s.c. soon after birth, day 21)?
A: 8.06 nanamoles heme oxygenase per m

Q: And the heme oxygenase activity ([4]; spleen, 10 μmol/Kg s.c. soon after birth, day 35)?
A: 13.72 nanamoles heme oxygenase per m

Q: What about the “Serum Bilirubin” value ([5]; 2 μmol/Kg s.c. soon after birth, day 2) of the same compound?
A: 0.39 milligrams per deciliter

Q: What about the “Serum Bilirubin” value ([5]; 2 μmol/Kg s.c. soon after birth, day 3) of the same compound?
A: 0.33 milligrams per deciliter

Q: And the “Serum Bilirubin” value ([5]; 2 μmol/Kg s.c. soon after birth, day 5)?
A: 0.28 milligrams per deciliter

Q: And the “Serum Bilirubin” value ([5]; 2 μmol/Kg s.c. soon after birth, day 7)?
A: 0.32 milligrams per deciliter

Q: And the “Serum Bilirubin” value ([5]; 2 μmol/Kg s.c. soon after birth, day 10)?
A: 0.33 milligrams per deciliter

Q: What about the “Serum Bilirubin” value ([5]; 2 μmol/Kg s.c. soon after birth, day 14) of the same compound?
A: 0.40 milligrams per deciliter

Q: And the “Serum Bilirubin” value ([5]; 10 μmol/Kg s.c. soon after birth, day 2)?
A: 0.43 milligrams per deciliter

Q: What about the “Serum Bilirubin” value ([5]; 10 μmol/Kg s.c. soon after birth, day 3) of the same compound?
A: 0.33 milligrams per deciliter

Q: And the “Serum Bilirubin” value ([5]; 10 μmol/Kg s.c. soon after birth, day 5)?
A: 0.24 milligrams per deciliter

Q: And the “Serum Bilirubin” value ([5]; 10 μmol/Kg s.c. soon after birth, day 7)?
A: 0.30 milligrams per deciliter

Q: And the “Serum Bilirubin” value ([5]; 10 μmol/Kg s.c. soon after birth, day 10)?
A: 0.33 milligrams per deciliter

Q: What about the “Serum Bilirubin” value ([5]; 10 μmol/Kg s.c. soon after birth, day 14) of the same compound?
A: 0.28 milligrams per deciliter
